Some results are limits rather than exact numbers.

Data set [1] has as its system UBP43± and UBP43−/− bone marrow cells. The data set can be described thus: Liquid bone marrow cell culture, Trypan blue dye exclusion assay. Format: cell-based, mice. As to conditions: 10 ng/ml, 48 hours. The protocol:
(a) Bone marrow cells isolated from UBP43+/+ and UBP43−/− mice were cultured in vitro in the presence or the absence of INFβ (100 units/ml) for 48 hours. TUNEL assay was performed to study the percentage of apoptosis cells. […] Cells were then subjected to Trypan blue dye exclusion assay. Each data point represents the mean of three independent experiments. Error bar represents standard deviation about the mean.
In vitro bone marrow cell culture.
TNFα and the type II IFN-IFNγ are commonly used to study bone marrow cell growth and apoptosis and in the analysis of various knockout mouse models.

Data set [2] has as its system hematopoietic cells transplanted from UBP43+/+ or UBP43−/− mice. The data set can be described thus: Bone marrow transplantation, flow cytometric analysis of CD45.2+ donor blood cells before and after poly(I—C) injection. In kind it is in vivo. From the text:
(a) Hematopoietic cells transplanted from UBP43−/− mice to UBP43+/+ congenic strain mice are hypersensitive to poly(I—C) injection. Bone marrow cells (CD45.2+) from individual UBP43+/+ and UBP43−/− mice (n=4 for each group) were isolated and transplanted to lethally irradiated congenic strain mice (CD45.2−). Six months after the transplantation, flow cytometric analysis was done to determine the relative amount of peripheral blood cells contributed from the donor or recipient mice based on CD45-2 immunostaining before and after poly(I—C) injection (48 h). Flow cytometric analysis results from one representative mouse transplanted with UBP43+/+ or UBP43−/− bone marrow are presented. (b) UBP43−/− bone marrow cells are hypersensitive to IFNβ treatment. Bone marrow cells from UBP43+/+ and UBP43−/− mice were cultured at 2×10^4 cells/ml in CFU assay medium in the presence of various concentrations of IFNβ. Total colony number was counted after 12 days of culture. Results of a single representative experiment of two independent experiments are shown. […]
Bone marrow transplantation. […] The appearance of donor origin blood cells (CD45.2+) was detected by flow cytometric analysis with […] (FITC) conjugated CD45.2 antibodies (BD Biosciences). […]
On the technique in general: Flow cytometry measures light scatter and fluorescence of single cells or particles in a stream.

Data set [3] has as its system UBP43+/+ and UBP43−/− mice. Description: Hematopoietic cell counting (peripheral white blood cells, bone marrow nucleated cells) after poly(I—C) injection. Format: in vivo. The protocol:
(§1) (a) Seven mice of each group (UBP43 +/+ and UBP43−/−) were ip injected daily with poly(I—C). Viability was monitored daily. (b) UBP43+/+ and UBP43−/− mice (n=4 for each group) were ip injected daily with poly(I—C). The total number of white blood cells (WEC) in the peripheral blood was counted daily after each poly(I—C) injection. (c) UBP43+/+ and UBP43−/− mice (n=5 for each group) were either left untreated or were ip injected with poly(I—C) 24 h prior to bone marrow extraction. Bone marrow cells were counted in control and poly(I—C) injected group of mice (two femurs from each mouse).
(§2) Poly(I—C) injection and hematopoietic cell counting: Poly(I—C) (Sigma) was dissolved in phosphate buffered saline and intraperitoneally (ip) injected to mice at 5 μg/g body weight (gbw). Blood and bone marrow nucleated cells were counted in Turk solution (3% acetic acid and 0.01% crystal violet in H2O).
(§3) UBP43-null mice are sensitive to potent IFN-inducer poly(I—C). Injection with synthetic double stranded RNA-polyinosinic acid-polycytidylic acid (poly(I—C)) has been commonly used to induce endogenous IFN production in mice. […] There were dramatic decreases (over 90%) in the total number of white blood cells in peripheral blood and nucleated cells in bone marrow of UBP43−/− mice.

Data set [4] has as its system UBP43+/+ and UBP43−/− mice. The data set can be described thus: Viability of mice after daily ip poly(I—C) injection. Format: in vivo. The conditions noted are these: daily ip poly(I—C) 5 μg/g body weight. The protocol:
as §1, §2, §3

In the case of TNF-α, the “difference in cell death between UBP43± cells and UBP43−/− cells” value in data set [1] is on record as “did not cause a significant difference”.
For the substance “polyinosinic acid-polycytidylic acid [poly(I—C)]”, in data set [2] (UBP43+/+ donor, 48 h after poly(I—C) injection), the “relative amount of CD45.2+ cells in the peripheral blood” value is given as “did not change”. In addition, the “blood cells of the UBP43−/− genotype (CD45.2+)” value in data set [2] (UBP43−/− donor, 48 hours post administration, 79% before dosing) was determined as 12%. Besides, in data set [3] (UBP43+/+ mice, ip poly(I—C)), the “decrease in number of total peripheral white blood cells” value is listed as 20%. Further, in data set [3] (UBP43+/+ mice, ip poly(I—C) 24 h prior to bone marrow extraction), the “decrease in total bone marrow nucleated cells” value was 30%. Further, the “decrease in total number of white blood cells in peripheral blood” value in data set [3] (UBP43−/− mice, ip poly(I—C)) is given as “over 90%”. The “decrease in nucleated cells in bone marrow” value in data set [3] (UBP43−/− mice, ip poly(I—C) 24 h prior to bone marrow extraction) is “over 90%”. The viability result in data set [4] (UBP43+/+ mice (n=7)) is reported as “survived the course of treatment”. The “time within which all mice died post treatment” value in data set [4] (UBP43−/− mice (n=7)) was at most 72 h.
For “IFNγ: type II IFN, proapoptotic cytokine (Peprotech)”, the “difference in cell death between UBP43± cells and UBP43−/− cells” value in data set [1] is on record as “did not cause a significant difference”.

The values are drawn from patent publication US20040209315A1, “Methods to identify agents that increase or decrease UBP43 activity and methods for use of such agents” (priority 2003, published 2004).
